Publication PMC7614683, “A small molecule PI3Kα activator for cardioprotection and neuroregeneration” (Nature, 2023)

Molecular target: T1, full length p110α/p85α (Homo sapiens, UniProt P42336)
T1 construct: Full-length human p110α was expressed either in a complex with full-length human p85α (for HTS, biochemistry and HDX-MS); 6xHis tag followed by TEV protease site (N); host or cells: Spodoptera frugiperda Sf9, baculovirus
Assay: HDX-MS
Assay type: binding
Experimental: Sample preparation: HDX-MS experiments were carried out as described previously. […] In total, three biological replicates, i.e. three separate protein preparations, each with exchange experiments carried out in triplicate were conducted. Data presented in the manuscript is a single biological replicate. Data acquisition and analysis were as follows: Each sample was thawed and injected onto an M-Class Acquity UPLC with HDX Technology (Waters) kept at 0.1°C. Proteins were digested in-line using an Enzymate Pepsin Column (Waters, #186007233) at 15°C for 2 min at 200 μl/min. Peptic peptides were then eluted onto an Acquity UPLC BEH C18 Column (Waters, #186002346) equilibrated in Pepsin-A buffer (0.1% formic acid) and separated using a 5-35% gradient of Pepsin-B buffer (0.1% formic acid, 99% acetonitrile) over 7 min at a flowrate of 40 μl/min. Data were collected on a Waters Cyclic IMS, with an electrospray ionisation source, from 50-2000 m/z. Data were collected in the HDMS^E mode. A single pass of the cyclic IMS was conducted. A “blank” sample of protein dilution buffer with quench was run between samples, and carry-over of peptides was routinely monitored. Five replicates were used to identify non-deuterated peptides. Criteria used to include peptides in the HDX-MS dataset were: minimum intensity 5000, minimum sequence length 5, maximum sequence length 25, a minimum of 3 fragment ions, a minimum of 0.1 products per amino acid, a minimum score of 6.62, a maximum MH+ Error of 10 ppm, identification in at least two datasets with a retention time RSD of less than 10%. Data was analysed using Protein Lynx Global Server (Waters) and DynamX (Waters). All peptides were manually inspected for EX1 kinetics and sufficient quality of the peptide envelope. Data quality, experiment design, and reporting of data meets the criteria as determined by the HDX-MS community. Uptake files were created using Baryonyx. Data are available via ProteomeXchange with identifier PXD037721.

T1 sequence (P42336 whole entry): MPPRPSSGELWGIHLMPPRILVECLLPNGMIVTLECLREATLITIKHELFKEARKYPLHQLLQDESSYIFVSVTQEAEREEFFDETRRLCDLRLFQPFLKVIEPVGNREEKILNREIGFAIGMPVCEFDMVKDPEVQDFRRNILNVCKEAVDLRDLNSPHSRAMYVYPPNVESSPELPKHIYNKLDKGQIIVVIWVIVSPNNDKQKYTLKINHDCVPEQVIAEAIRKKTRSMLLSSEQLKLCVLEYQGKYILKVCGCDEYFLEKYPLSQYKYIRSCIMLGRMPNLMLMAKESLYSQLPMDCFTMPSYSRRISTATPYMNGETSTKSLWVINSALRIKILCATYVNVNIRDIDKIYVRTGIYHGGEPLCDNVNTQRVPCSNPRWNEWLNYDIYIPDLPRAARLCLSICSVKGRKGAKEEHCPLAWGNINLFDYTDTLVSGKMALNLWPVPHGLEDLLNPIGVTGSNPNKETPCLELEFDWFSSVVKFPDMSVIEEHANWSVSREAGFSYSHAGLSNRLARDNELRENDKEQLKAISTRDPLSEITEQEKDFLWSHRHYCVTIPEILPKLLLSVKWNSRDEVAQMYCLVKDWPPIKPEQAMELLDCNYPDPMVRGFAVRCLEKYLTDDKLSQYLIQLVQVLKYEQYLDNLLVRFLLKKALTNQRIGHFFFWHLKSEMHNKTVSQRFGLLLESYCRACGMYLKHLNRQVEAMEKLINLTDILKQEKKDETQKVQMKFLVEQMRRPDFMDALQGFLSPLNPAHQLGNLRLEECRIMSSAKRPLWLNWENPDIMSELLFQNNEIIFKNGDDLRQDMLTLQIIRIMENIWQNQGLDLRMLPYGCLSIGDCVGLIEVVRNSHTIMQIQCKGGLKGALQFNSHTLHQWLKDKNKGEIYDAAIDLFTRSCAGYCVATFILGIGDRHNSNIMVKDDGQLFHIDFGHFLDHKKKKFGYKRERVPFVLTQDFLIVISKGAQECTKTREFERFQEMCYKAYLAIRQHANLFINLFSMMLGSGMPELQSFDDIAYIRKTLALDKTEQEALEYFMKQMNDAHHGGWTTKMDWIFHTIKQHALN
T1 sequence (P27986 whole entry partner): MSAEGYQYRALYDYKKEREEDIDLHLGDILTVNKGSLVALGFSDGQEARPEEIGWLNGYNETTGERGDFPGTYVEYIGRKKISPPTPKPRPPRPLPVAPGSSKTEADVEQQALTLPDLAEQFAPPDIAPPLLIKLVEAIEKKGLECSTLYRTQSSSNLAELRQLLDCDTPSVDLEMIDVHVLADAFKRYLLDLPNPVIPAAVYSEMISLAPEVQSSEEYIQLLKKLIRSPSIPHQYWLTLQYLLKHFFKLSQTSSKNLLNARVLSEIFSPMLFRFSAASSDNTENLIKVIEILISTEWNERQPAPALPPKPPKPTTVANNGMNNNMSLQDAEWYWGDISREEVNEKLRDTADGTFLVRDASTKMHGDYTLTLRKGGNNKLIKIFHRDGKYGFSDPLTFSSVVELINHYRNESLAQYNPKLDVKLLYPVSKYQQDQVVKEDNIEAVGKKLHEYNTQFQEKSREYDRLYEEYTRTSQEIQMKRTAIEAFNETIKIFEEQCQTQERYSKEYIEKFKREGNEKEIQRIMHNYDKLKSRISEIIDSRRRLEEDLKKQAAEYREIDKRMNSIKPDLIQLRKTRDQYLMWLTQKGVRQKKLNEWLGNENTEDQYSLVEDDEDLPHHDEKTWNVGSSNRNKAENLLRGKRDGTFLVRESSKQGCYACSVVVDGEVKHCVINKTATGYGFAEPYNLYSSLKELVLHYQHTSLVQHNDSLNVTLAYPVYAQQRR

## CCN1CCN(c2ccc(Nc3cc(Nc4cccc5c4N(C(C)=O)CC5)ccn3)cc2)CC1 [Compound 1938]
PK3CA_HUMAN peptide 487-498, time column 5 of 5
  HDX difference, percentage: -0.361%
PK3CA_HUMAN peptide 496-507, time column 1 of 5, deuterium exchange time 0.005
  HDX difference, percentage: -1.7%
PK3CA_HUMAN peptide 496-507, time column 2 of 5, deuterium exchange time 0.05
  HDX difference, percentage: 0.429%
PK3CA_HUMAN peptide 496-507, time column 3 of 5, deuterium exchange time 0.5
  HDX difference, percentage: 0.5%
PK3CA_HUMAN peptide 496-507, time column 4 of 5, deuterium exchange time 5
  HDX difference, percentage: 0.6%
PK3CA_HUMAN peptide 496-507, time column 5 of 5
  HDX difference, percentage: 0.121%
PK3CA_HUMAN peptide 508-520, time column 1 of 5, deuterium exchange time 0.005
  HDX difference, percentage: -0.644%
PK3CA_HUMAN peptide 508-520, time column 2 of 5, deuterium exchange time 0.05
  HDX difference, percentage: 1.9%
PK3CA_HUMAN peptide 508-520, time column 3 of 5, deuterium exchange time 0.5
  HDX difference, percentage: 1.4%
PK3CA_HUMAN peptide 508-520, time column 4 of 5, deuterium exchange time 5
  HDX difference, percentage: 1.5%
PK3CA_HUMAN peptide 508-520, time column 5 of 5
  HDX difference, percentage: 0.952%
PK3CA_HUMAN peptide 538-549, time column 1 of 5, deuterium exchange time 0.005
  HDX difference, percentage: -0.8%
PK3CA_HUMAN peptide 538-549, time column 2 of 5, deuterium exchange time 0.05
  HDX difference, percentage: 1.0%
PK3CA_HUMAN peptide 538-549, time column 3 of 5, deuterium exchange time 0.5
  HDX difference, percentage: 0.441%
PK3CA_HUMAN peptide 538-549, time column 4 of 5, deuterium exchange time 5
  HDX difference, percentage: -1.1%
PK3CA_HUMAN peptide 538-549, time column 5 of 5
  HDX difference, percentage: -0.257%
PK3CA_HUMAN peptide 538-554, time column 1 of 5, deuterium exchange time 0.005
  HDX difference, percentage: -1.3%
PK3CA_HUMAN peptide 538-554, time column 2 of 5, deuterium exchange time 0.05
  HDX difference, percentage: 0.7%
PK3CA_HUMAN peptide 538-554, time column 3 of 5, deuterium exchange time 0.5
  HDX difference, percentage: 0.47%
PK3CA_HUMAN peptide 538-554, time column 4 of 5, deuterium exchange time 5
  HDX difference, percentage: -1.1%
PK3CA_HUMAN peptide 538-554, time column 5 of 5
  HDX difference, percentage: -0.74%
PK3CA_HUMAN peptide 555-570, time column 1 of 5, deuterium exchange time 0.005
  HDX difference, percentage: -1.2%
PK3CA_HUMAN peptide 555-570, time column 2 of 5, deuterium exchange time 0.05
  HDX difference, percentage: 0.462%
PK3CA_HUMAN peptide 555-570, time column 3 of 5, deuterium exchange time 0.5
  HDX difference, percentage: 0.2%
PK3CA_HUMAN peptide 555-570, time column 4 of 5, deuterium exchange time 5
  HDX difference, percentage: -1.4%
PK3CA_HUMAN peptide 555-570, time column 5 of 5
  HDX difference, percentage: -2.6%
PK3CA_HUMAN peptide 571-583, time column 1 of 5, deuterium exchange time 0.005
  HDX difference, percentage: -0.6%
PK3CA_HUMAN peptide 571-583, time column 2 of 5, deuterium exchange time 0.05
  HDX difference, percentage: 0.4%
PK3CA_HUMAN peptide 571-583, time column 3 of 5, deuterium exchange time 0.5
  HDX difference, percentage: 0.167%
PK3CA_HUMAN peptide 571-583, time column 4 of 5, deuterium exchange time 5
  HDX difference, percentage: -0.378%
PK3CA_HUMAN peptide 571-583, time column 5 of 5
  HDX difference, percentage: -1.4%
PK3CA_HUMAN peptide 582-596, time column 1 of 5, deuterium exchange time 0.005
  HDX difference, percentage: -1.6%
PK3CA_HUMAN peptide 582-596, time column 2 of 5, deuterium exchange time 0.05
  HDX difference, percentage: 0.374%
PK3CA_HUMAN peptide 582-596, time column 3 of 5, deuterium exchange time 0.5
  HDX difference, percentage: 0.262%
PK3CA_HUMAN peptide 582-596, time column 4 of 5, deuterium exchange time 5
  HDX difference, percentage: 0.76%
PK3CA_HUMAN peptide 582-596, time column 5 of 5
  HDX difference, percentage: 0.0749%
PK3CA_HUMAN peptide 597-606, time column 1 of 5, deuterium exchange time 0.005
  HDX difference, percentage: 0.175%
PK3CA_HUMAN peptide 597-606, time column 2 of 5, deuterium exchange time 0.05
  HDX difference, percentage: 1.6%
PK3CA_HUMAN peptide 597-606, time column 3 of 5, deuterium exchange time 0.5
  HDX difference, percentage: 0.5%
PK3CA_HUMAN peptide 597-606, time column 4 of 5, deuterium exchange time 5
  HDX difference, percentage: 1.4%
PK3CA_HUMAN peptide 597-606, time column 5 of 5
  HDX difference, percentage: 1.3%
PK3CA_HUMAN peptide 610-637, time column 1 of 5, deuterium exchange time 0.005
  HDX difference, percentage: -0.237%
PK3CA_HUMAN peptide 610-637, time column 2 of 5, deuterium exchange time 0.05
  HDX difference, percentage: 0.13%
PK3CA_HUMAN peptide 610-637, time column 3 of 5, deuterium exchange time 0.5
  HDX difference, percentage: 0.2%
PK3CA_HUMAN peptide 610-637, time column 4 of 5, deuterium exchange time 5
  HDX difference, percentage: 0.257%
PK3CA_HUMAN peptide 610-637, time column 5 of 5
  HDX difference, percentage: 0.128%
PK3CA_HUMAN peptide 626-638, time column 1 of 5, deuterium exchange time 0.005
  HDX difference, percentage: -1.2%
PK3CA_HUMAN peptide 626-638, time column 2 of 5, deuterium exchange time 0.05
  HDX difference, percentage: 1.0%
PK3CA_HUMAN peptide 626-638, time column 3 of 5, deuterium exchange time 0.5
  HDX difference, percentage: 0.459%
PK3CA_HUMAN peptide 626-638, time column 4 of 5, deuterium exchange time 5
  HDX difference, percentage: -0.333%
PK3CA_HUMAN peptide 626-638, time column 5 of 5
  HDX difference, percentage: -0.147%
PK3CA_HUMAN peptide 647-658, time column 1 of 5, deuterium exchange time 0.005
  HDX difference, percentage: -0.361%
PK3CA_HUMAN peptide 647-658, time column 2 of 5, deuterium exchange time 0.05
  HDX difference, percentage: 0.6%
PK3CA_HUMAN peptide 647-658, time column 3 of 5, deuterium exchange time 0.5
  HDX difference, percentage: 1.0%
PK3CA_HUMAN peptide 647-658, time column 4 of 5, deuterium exchange time 5
  HDX difference, percentage: 1.2%
PK3CA_HUMAN peptide 647-658, time column 5 of 5
  HDX difference, percentage: -0.0483%
PK3CA_HUMAN peptide 661-687, time column 1 of 5, deuterium exchange time 0.005
  HDX difference, percentage: -1.5%
PK3CA_HUMAN peptide 661-687, time column 2 of 5, deuterium exchange time 0.05
  HDX difference, percentage: 0.4%
PK3CA_HUMAN peptide 661-687, time column 3 of 5, deuterium exchange time 0.5
  HDX difference, percentage: 0.466%
PK3CA_HUMAN peptide 661-687, time column 4 of 5, deuterium exchange time 5
  HDX difference, percentage: 0.23%
PK3CA_HUMAN peptide 661-687, time column 5 of 5
  HDX difference, percentage: -0.271%
PK3CA_HUMAN peptide 688-693, time column 1 of 5, deuterium exchange time 0.005
  HDX difference, percentage: -3.1%
PK3CA_HUMAN peptide 688-693, time column 2 of 5, deuterium exchange time 0.05
  HDX difference, percentage: 0.6%
PK3CA_HUMAN peptide 688-693, time column 3 of 5, deuterium exchange time 0.5
  HDX difference, percentage: -0.142%
PK3CA_HUMAN peptide 688-693, time column 4 of 5, deuterium exchange time 5
  HDX difference, percentage: -0.352%
PK3CA_HUMAN peptide 688-693, time column 5 of 5
  HDX difference, percentage: -0.379%
PK3CA_HUMAN peptide 692-703, time column 1 of 5, deuterium exchange time 0.005
  HDX difference, percentage: -0.563%
PK3CA_HUMAN peptide 692-703, time column 2 of 5, deuterium exchange time 0.05
  HDX difference, percentage: 0.65%
PK3CA_HUMAN peptide 692-703, time column 3 of 5, deuterium exchange time 0.5
  HDX difference, percentage: 0.8%
PK3CA_HUMAN peptide 692-703, time column 4 of 5, deuterium exchange time 5
  HDX difference, percentage: 0.4%
PK3CA_HUMAN peptide 692-703, time column 5 of 5
  HDX difference, percentage: 0.166%
PK3CA_HUMAN peptide 704-709, time column 1 of 5, deuterium exchange time 0.005
  HDX difference, percentage: 0.4%
PK3CA_HUMAN peptide 704-709, time column 2 of 5, deuterium exchange time 0.05
  HDX difference, percentage: 0.074%
PK3CA_HUMAN peptide 704-709, time column 3 of 5, deuterium exchange time 0.5
  HDX difference, percentage: -1.2%
PK3CA_HUMAN peptide 704-709, time column 4 of 5, deuterium exchange time 5
  HDX difference, percentage: -0.7%
PK3CA_HUMAN peptide 704-709, time column 5 of 5
  HDX difference, percentage: 0.531%
